Where two headings read alike, the source gives them in different places.
Tests used:
[1] = test system: Trichomonas vaginalis G3 trophozoites
[2] = test system: nontumorigenic neonatal foreskin fibroblast (NFF) cell line
[3] = replicate 1, parasite screen at 1 µg/mL
[4] = replicate 2, parasite screen at 1 µg/mL
[5] = HTS single concentration, parasite screen 1 µg/mL, replicate 1
[6] = HTS single concentration, parasite screen 1 µg/mL, replicate 2
[7] = NFF_NS1 screen 5 µg/mL, single concentration
[8] = HTS, parasite screen at 1 µg/mL, replicate 1
[9] = HTS, parasite screen at 1 µg/mL, replicate 2
[10] = NFF fibroblast screen at 5 µg/mL, A = active, I = inactive

For `C=C1c2cccc(O)c2C(O)=C2C(=O)C3(O)C(O)=C(C(N)=O)C(=O)C(N(C)C)C3C(O)C12` (centres unmarked) [BIA-M1467], the T.vaginalis_%inb_Rep1 [1, 3] was 12.78%, the T.vaginalis_%inb_Rep2 [1, 4] was 4.43% and the NFF_Activity ([2]; NFF cells, screen at 5 µg/mL) was “I (otherwise these were reported as inactive (I))”.
With `COC(=O)c1cc(O)cc(OC)c1Oc1cc(C)cc(O)c1C(=O)O` [BIA-A1008] the T.vaginalis_%inb_Rep1 [1, 5] was 16.05%, the T.vaginalis_%inb_Rep2 [1, 6] was 13.59% and the NFF_Activity [2, 7] was “I (otherwise these were reported as inactive (I))”.
For `CCC(=O)[C@@H](C)[C@@H](O)[C@H](C)C[C@@H](C)[C@H]1OC(=O)C[C@@]2(O)CC=C(C)[C@H](O2)/C(C)=C/CCC[C@@H](O[C@H]2C[C@@H](OC(N)=O)[C@H](O)[C@@H](C)O2)/C=C/[C@H](C)C[C@H]1C` [Venturicidin A], the T.vaginalis_%inb_Rep1 [1, 8] was 9.49%, the T.vaginalis_%inb_Rep2 [1, 9] was 12.92% and the NFF_Activity [2, 10] was “I (otherwise these were reported as inactive (I))”.
With `COc1ccc2c3c([nH]c2c1)[C@H](C=C(C)C)N1C(=O)[C@@H]2CCCN2C(=O)[C@@H]1C3` [Fumitremorgin C] the T.vaginalis_%inb_Rep1 [1, 8] was 12.68%, the T.vaginalis_Absorbance_Rep1 ([1]; HTS, parasite screen at 1 µg/mL, replicate 1, raw absorbance) was 0.952 and the T.vaginalis_%inb_Rep2 [1, 9] was 4.11%. For the same compound, the T.vaginalis_Absorbance_Rep2 ([1]; HTS, parasite screen at 1 µg/mL, replicate 2, raw absorbance) was 0.699 and the NFF_Activity ([2]; NFF_NS1 screen at 5 µg/mL) was “I (otherwise these were reported as inactive (I))”.
For `CC(=O)NCCc1ccc(O)cc1` [BIA-A1731], the T.vaginalis_%inb_Rep1 [1, 5] was 13.35%, the T.vaginalis_%inb_Rep2 [1, 6] was 10.05% and the NFF_Activity [2, 7] was “I (otherwise these were reported as inactive (I))”.
Nargenicin was tested, and the T.vaginalis_%inb_Rep1 ([1]; HTS replicate 1, parasite screen 1 µg/mL) was 10.70%, the T.vaginalis_%inb_Rep2 ([1]; HTS replicate 2, parasite screen 1 µg/mL) was 13.02% and the NFF_Activity ([2]; NFF fibroblasts, single concentration 5 µg/mL) was “I (otherwise these were reported as inactive (I))”.
For `CCOCCO[C@@H]1CC[C@@H](C[C@@H](C)[C@@H]2CC(=O)[C@H](C)/C=C(\C)[C@@H](O)[C@@H](OC)C(=O)[C@H](C)C[C@H](C)/C=C/C=C/C=C(\C)[C@@H](OC)C[C@@H]3CC[C@@H](C)[C@@](O)(O3)C(=O)C(=O)N3CCCC[C@H]3C(=O)O2)C[C@H]1OC` [Umirolimus], the T.vaginalis_%inb_Rep1 [1, 8] was 9.81%, the T.vaginalis_%inb_Rep2 [1, 9] was 13.47% and the NFF_Activity [2, 10] was “I (otherwise these were reported as inactive (I))”.
In the case of `COc1ccc2c(c1OC)C(=O)O[C@@H]2[C@H]1c2cc3c(cc2CCN1C)OCO3` [BIA-H1954], the T.vaginalis_%inb_Rep1 [1, 3] was 11.27%, the T.vaginalis_%inb_Rep2 [1, 4] was 6.40% and the NFF_Activity ([2]; NFF cells, screen at 5 µg/mL) was “I (otherwise these were reported as inactive (I))”.
`C=CC(C)(C)C12CC3C(=O)N4C(CC5(C(C)(C)C=C)c6ccccc6NC45)C(=O)N3C1Nc1ccccc12` (centres unmarked) [BIA-A1631] was tested, and the T.vaginalis_%inb_Rep1 [1, 5] was 14.16%, the T.vaginalis_%inb_Rep2 [1, 6] was 13.96% and the NFF_Activity [2, 7] was “I (otherwise these were reported as inactive (I))”.
In the case of `CCCCCCCCCCCCCCCC(=O)N[C@H]1CCOC1=O` [BIA-H1500], the T.vaginalis_%inb_Rep1 [1, 3] was 13.84%, the T.vaginalis_%inb_Rep2 [1, 4] was 11.55% and the NFF_Activity ([2]; NFF cells, screen at 5 µg/mL) was “I (otherwise these were reported as inactive (I))”.
With `COc1cc(C)c2c(OC)cc(=O)oc2c1-c1c(OC)cc(C)c2c(OC)cc(=O)oc12` [BIA-K1634] the T.vaginalis_%inb_Rep1 [1, 3] was 14.30%, the T.vaginalis_%inb_Rep2 [1, 4] was 13.02% and the NFF_Activity ([2]; NFF cells, screen at 5 µg/mL) was “I (otherwise these were reported as inactive (I))”.
With `Cc1c2c(c(O)c3c(O)cccc13)C(=O)[C@]1(O)C(=O)C(C(N)=O)=C(O)[C@@H](N(C)C)[C@@H]1C2.Cl` [BIA-A1340] the T.vaginalis_%inb_Rep1 [1, 5] was 6.73%, the T.vaginalis_%inb_Rep2 [1, 6] was 9.54% and the NFF_Activity [2, 7] was “I (otherwise these were reported as inactive (I))”.
With `CCC(=O)Nc1c2sscc-2n(C)c1=O` [BIA-A1120] the T.vaginalis_%inb_Rep1 [1, 5] was 100.00%, the T.vaginalis_%inb_Rep2 [1, 6] was 82.07% and the NFF_Activity [2, 7] was “A (active (A) compounds having >25% inhibitory activity)”.
With `CO[C@H]1[C@H](O)[C@@H](O)[C@H](n2c3c(Cl)cccc3c3c4c(c5c6cccc(Cl)c6[nH]c5c32)C(=O)NC4=O)O[C@@H]1CO` [BIA-R1075] the T.vaginalis_%inb_Rep1 ([1]; parasite screen at 1 µg/mL, replicate 1) was 10.49%, the T.vaginalis_%inb_Rep2 ([1]; parasite screen at 1 µg/mL, replicate 2) was 13.95% and the NFF_Activity ([2]; NFF_NS1 screen at 5 µg/mL, NFF cells) was “I (otherwise these were reported as inactive (I))”.
With `CC1CCCC(O)CCCCCc2cc(O)cc(O)c2C(=O)O1` (stereo not drawn) [Zearalanol, beta-] the T.vaginalis_%inb_Rep1 [1, 8] was 9.65%, the T.vaginalis_%inb_Rep2 [1, 9] was 13.83% and the NFF_Activity [2, 10] was “I (otherwise these were reported as inactive (I))”.
In the case of `CC[C@H](C)[C@H]1O[C@]2(C=C[C@@H]1C)C[C@@H]1C[C@@H](C/C=C(\C)[C@@H](O[C@H]3C[C@H](OC)[C@@H](O[C@H]4C[C@H](OC)[C@@H](O)[C@H](C)O4)[C@H](C)O3)[C@@H](C)/C=C/C=C3\CO[C@@H]4[C@H](O)C(C)C=C(C(=O)O1)[C@]34O)O2` (some centres unmarked) [BIA-A1579], the T.vaginalis_%inb_Rep1 [1, 5] was 15.89%, the T.vaginalis_%inb_Rep2 [1, 6] was 15.40% and the NFF_Activity [2, 7] was “I (otherwise these were reported as inactive (I))”.

From publication PMC7897990, “TriTOX: A novel Trichomonas vaginalis assay platform for high-throughput screening of compound libraries” (International Journal for Parasitology: Drugs and Drug …, 2021)
